The values that follow come from patent publication US8318770B2, “Tetrahydroquinoline indole derivatives and uses thereof” (Roche Palo Alto LLC, priority 2009, dated 2012).

Holding throughout (assay type): binding
Assay [1] addresses T1, human dopamine transporter (hDAT) (Homo sapiens, UniProt Q01959).
T1 construct: expressed in transfected cells; host or cells: HEK-293
In words: Human dopamine transporter (hDAT) scintillation proximity assay, competition with [3H]-Vanoxerine. Conditions: HEK-293 cells expressing recombinant hDAT, Ki by Cheng-Prusoff. As for the experimental part:
This assay was used to determine the affinity of ligands for the dopamine transporter by competition with [^3H]-Vanoxerine.
HEK-293 cells (Tatsumi et al., Eur. J. Pharmacol. 1997, 30, 249-258) stably expressing recombinant hDAT were maintained with media (DMEM hi glucose with 10% FBS, […] G418 and 2 mM L-Glutamine) and incubated at 37° C. with 5% CO2. Cells were plated four hours prior to experiment by placing approximately 30,000 cells per well (in PBS) on white, opaque Cell-Tak coated 96 well plates. Extra buffer was apriated from the cell plates using an ELx405 plate washer.
^3[H] vanoxerine (GBR 12909) radioligand, specific activity approximately 59 Ci/mmol, stock concentration, 400 nM, and 50 mM Tris-HCl, 300 mM NaCl, (pH 7.4) buffers were used for Scintillation Proximity Assay IC50/Ki determination. […]
The % inhibition was calculated for each compound tested [(Compound CPM at maximum concentration-Non-Specific CPM)/Total CPM*100]. […]
(§1) [formula] where max=total binding, min=non specific binding, x=concentration (M) of the tested compound and n=Hill slope. The inhibition dissociation constant (Ki) of each compound was determined according to the method of Cheng-Prusoff and then converted into negative logarithm (pKi) of the Ki.
Background: Scintillation proximity formats need no separation of bound from free tracer.

In assay [2] the target is T2, human norepinephrine transporter (hNET) (Homo sapiens, UniProt P23975).
T2 construct: expressed in transfected cells; host or cells: HEK-293 (Clone: HEK-hNET #2)
T2 sequence (P23975 whole entry): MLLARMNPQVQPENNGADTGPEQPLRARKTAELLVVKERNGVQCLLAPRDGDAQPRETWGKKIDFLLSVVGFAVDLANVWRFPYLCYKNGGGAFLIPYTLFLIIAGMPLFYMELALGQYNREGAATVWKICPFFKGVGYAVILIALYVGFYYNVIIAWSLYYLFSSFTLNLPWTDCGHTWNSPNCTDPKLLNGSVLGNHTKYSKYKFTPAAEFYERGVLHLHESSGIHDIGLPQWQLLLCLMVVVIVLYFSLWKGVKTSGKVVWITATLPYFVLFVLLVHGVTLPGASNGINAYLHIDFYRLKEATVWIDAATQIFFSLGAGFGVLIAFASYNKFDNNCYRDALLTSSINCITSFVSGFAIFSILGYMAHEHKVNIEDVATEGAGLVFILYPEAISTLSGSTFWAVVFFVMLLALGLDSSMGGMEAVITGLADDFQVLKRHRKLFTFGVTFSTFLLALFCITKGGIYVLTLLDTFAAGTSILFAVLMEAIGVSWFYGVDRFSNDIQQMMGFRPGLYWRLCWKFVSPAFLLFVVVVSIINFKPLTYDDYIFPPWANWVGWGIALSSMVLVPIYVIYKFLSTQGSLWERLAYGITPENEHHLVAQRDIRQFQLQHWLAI
In words: Human norepinephrine transporter (hNET) scintillation proximity assay, competition with [3H]-Nisoxetine. Conditions: membranes of HEK-293 cells expressing recombinant hNET, Ki by Cheng-Prusoff. As for the experimental part: This assay was used to determine the affinity of ligands for the hNET transporter by competition with [^3H]-Nisoxetine. As in the hSERT assay of the above example, receptor-containing membranes were pre-coupled to the SPA beads and the binding of the appropriate radioligand to the transporter was measured. The light emission was proportional to the amount of bound radioligand, with unbound radioligand producing no signal.
HEK-293 cells (Tatsumi et al., Eur. J. Pharmacol. 1997, 30, 249-258) stably expressing recombinant hNET (Clone: HEK-hNET #2) were maintained with media (DMEM hi glucose with 10% FBS, 300 ug/ml G418 and 2 mM L-Glutamine) and incubated at 37° C. with 5% CO2. Cells were released from culture flasks using PBS for 1-2 minutes. […]
(§2) Cell membranes were prepared using a membrane preparation buffer of 50 mM TRIS (pH 7.4). […] After a second centrifugation, the pellet was re-homogenized and brought to a final volume determined during the assay. […]
^3[H] […] The mixtures were allowed to stand at room temperature for one hour, and were then counted on a Packard TopCount LCS, a generic SPA counting protocol settings (Energy Range: Low, Efficiency Mode: Normal, Region A: 1.50-35.00, Region B: 1.50-256.00, Count Time (min.): 0.40, Background Subtract: none, Half-Life Correction: no, Quench Indicator: tSIS, Platemap blank subtraction: No, Cross talk reduction: Off). […]

Assay [3] has as its target T3, human serotonin transporter (hSERT) (Homo sapiens, UniProt P31645).
T3 construct: expressed in transfected cells; host or cells: HEK-293
In words: Human serotonin transporter (hSERT) scintillation proximity assay, competition with [3H]-Citalopram. Conditions: membranes of HEK-293 cells expressing recombinant hSERT, Ki by Cheng-Prusoff. Here is the method:
The screening assay of this example was used to determine the affinity of ligands at the hSERT transporter by competition with [^3H]-Citalopram.
Scintillation Proximity Assay (SPA) works by bringing radioligand within close proximity to the bead's scintillant to stimulate light emission. In this assay, the receptor-containing membranes were pre-coupled to the SPA beads and the binding of the appropriate radioligand to the transporter was measured. The light emission was proportional to the amount of bound radioligand. Unbound radioligand produced no signal as a result of distant proximity to scintillant (lack of energy transfer). […]
as §2
The % inhibition was calculated for each compound tested [(Compound counts per minute (CPM) at maximum concentration-Non-Specific CPM)/Total CPM*100]. […]
as §1

Each structure is given as a SMILES string.

T1 sequence (Q01959 whole entry): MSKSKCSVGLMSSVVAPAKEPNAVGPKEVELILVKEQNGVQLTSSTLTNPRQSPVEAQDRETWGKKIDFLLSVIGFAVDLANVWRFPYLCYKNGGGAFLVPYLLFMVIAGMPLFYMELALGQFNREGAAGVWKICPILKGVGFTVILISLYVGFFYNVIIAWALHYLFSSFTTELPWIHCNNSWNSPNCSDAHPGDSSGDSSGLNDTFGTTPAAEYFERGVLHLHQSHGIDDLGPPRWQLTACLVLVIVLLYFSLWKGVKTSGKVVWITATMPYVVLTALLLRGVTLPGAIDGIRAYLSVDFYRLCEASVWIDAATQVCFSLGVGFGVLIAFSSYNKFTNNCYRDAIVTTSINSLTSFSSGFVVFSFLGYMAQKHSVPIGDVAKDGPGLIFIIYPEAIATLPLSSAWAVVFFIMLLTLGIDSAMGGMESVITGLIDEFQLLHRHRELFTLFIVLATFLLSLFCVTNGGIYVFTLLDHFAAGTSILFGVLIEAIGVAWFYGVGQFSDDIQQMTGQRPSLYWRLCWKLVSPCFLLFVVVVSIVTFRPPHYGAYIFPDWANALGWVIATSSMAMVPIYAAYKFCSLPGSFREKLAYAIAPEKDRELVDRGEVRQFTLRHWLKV
T3 sequence (P31645 whole entry): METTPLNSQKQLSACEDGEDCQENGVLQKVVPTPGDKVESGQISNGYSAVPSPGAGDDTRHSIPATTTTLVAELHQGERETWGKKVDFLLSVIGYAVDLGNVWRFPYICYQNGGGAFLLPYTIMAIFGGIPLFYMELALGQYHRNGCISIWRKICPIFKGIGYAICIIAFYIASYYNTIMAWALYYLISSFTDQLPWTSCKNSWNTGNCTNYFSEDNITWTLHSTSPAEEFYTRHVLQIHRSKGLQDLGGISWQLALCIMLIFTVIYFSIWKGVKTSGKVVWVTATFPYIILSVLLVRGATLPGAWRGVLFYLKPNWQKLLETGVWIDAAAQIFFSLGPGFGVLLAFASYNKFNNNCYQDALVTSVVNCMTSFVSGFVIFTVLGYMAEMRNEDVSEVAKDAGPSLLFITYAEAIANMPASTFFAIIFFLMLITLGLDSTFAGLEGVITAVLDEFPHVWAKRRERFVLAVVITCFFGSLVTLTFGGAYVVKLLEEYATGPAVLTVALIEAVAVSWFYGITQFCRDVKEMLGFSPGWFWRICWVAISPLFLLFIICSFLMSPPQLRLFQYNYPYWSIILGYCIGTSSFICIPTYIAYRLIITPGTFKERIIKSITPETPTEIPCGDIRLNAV

In the case of `CNC1CCN(c2ccc3[nH]ccc3c2)c2ccccc21` (stereo not drawn) [[1-(1H-Indol-5-yl)-1,2,3,4-tetrahydro-quinolin-4-yl]-methyl-amine], the results for the Ki in assay [1], in assay [2] and in assay [3] were around 0.0141 µM, around 0.0155 µM and around 0.0331 µM, respectively.
